Values quoted from earlier work in US12215111B2, “Imidazopyridazine IL-17 inhibitor compounds” (Janssen Pharmaceutica NV, priority 2021, dated 2025).

Settings: moderate-to-severe HS, seven of nine patients, open-label pilot-trial; cited from earlier work

secukinumab
patients who achieved HiSCR: 78%
